Several values for one entry are separate records, joined by “and”; a condition that tells them apart may be missing. Equal values may be shown once. Activity calls are given as the source filed them. How the calls were made is not given here.

The values that follow come from PubChem BioAssay AID732 (Emory University Molecular Libraries Screening Center, 2007).

The experiment relates to in vivo angiogenesis, blood vessel count. As to the kind of experiment: angiogenesis inhibition in living animals, in vivo study, HTS (AID 732).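 Further: zebrafish embryos dosed at one day post fertilization; 0% = reference inhibitor and 100% = plate mean.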 To be noted: hits give low values;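 tested at 30 µM in the well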.

On to `CN1CCc2cccc(Cl)c2CC1`, for which the vessel count % control was 93.2% (inactive).

Turning to `CC1(C)CCC(NC(=O)[C@@H](N)CCC(=O)O)CC1`, the vessel count % control was 122% (inactive).

Consider `CCn1cc(C(=O)O)c(=O)c2ccc(Cc3ccccc3)nc21`, for which the vessel count % control was 108% (inactive).

Consider `O=C1NCN(c2ccccc2)C12CCN(CCCC(c1ccc(F)cc1)c1ccc(F)cc1)CC2`, for which the vessel count % control is 84.4% (inactive).

Turning to `O=c1[nH]c2cc(Cl)c(Cl)cc2[nH]c1=O`, the vessel count % control was 109% (inactive).

`CC(C)(C(=O)O)c1ccc(C(O)CCCN2CCC(C(O)(c3ccccc3)c3ccccc3)CC2)cc1` (stereo not given): the vessel count % control was 116% (inactive).

As for `CCC(=O)N1CCN(C(=O)c2ccccc2)CC1`, the vessel count % control was 134% (inactive).

On to `COC(=O)Nc1nc2ccc(C(=O)c3cccs3)cc2[nH]1`, for which the vessel count % control is 150% (inactive).

As to `O=c1onc2n1-c1cc(Br)ccc1OC2`, the vessel count % control is 95.9% (inactive).

Consider `COc1cc(CC(C)N)c(OC)cc1I` (stereo not given), for which the vessel count % control is 79.5% (inactive).

With `CN1CCC(c2c[nH]c3ccc(O)cc23)CC1`, the vessel count % control was 95.9% (inactive).

Take `NCCCNCCCCNCCCN`: the vessel count % control was 115% (inactive).

For `O=S(=O)(c1cccc2c(I)cccc12)N1CCCNCC1`, the vessel count % control was 114% (inactive).

On to `CN(Cc1cnc2nc(N)nc(N)c2n1)c1ccc(C(=O)N[C@@H](CCC(=O)O)C(=O)O)cc1`, for which the vessel count % control is 112% (inactive).

As to `C/C=C(/C)C(=O)O[C@H]1C(C)=C2[C@H]([C@@H]1OC(=O)CCCCCCC)[C@@](C)(OC(C)=O)C[C@H](OC(=O)CCC)[C@@]1(O)[C@H]2OC(=O)[C@@]1(C)O`, the vessel count % control is 0% (inactive).

For `Nc1ncnc2c1ncn2C1CCCO1` (stereo not given), the vessel count % control is 101% (inactive).

As to `c1ccc(C2CN3CCSC3=N2)cc1` (stereo not given), the vessel count % control is 95.6% (inactive).

On to `Cc1[nH]c2ccc(O)cc2c1CCN`, for which the vessel count % control was 87% (inactive).

Regarding `CCOC(=O)c1ncn2c1CN(C)C(=O)c1cc(F)ccc1-2`, the vessel count % control was 98.9% (inactive).

Consider `COc1cccc(-c2cc(=O)c3ccccc3o2)c1N`, for which the vessel count % control was 73.8% (inactive).

For the molecule `O=c1ccn([C@@H]2O[C@H](COP(=O)(O)OP(=O)(O)O)[C@@H](O)[C@H]2O)c(=O)[nH]1`, the vessel count % control is 140% (inactive).

With `CC(=O)C(C)=O`, the vessel count % control is 99.7% (inactive).

In the case of `CCOC(=O)C1=C[C@]2(CC)CCCN3CCc4c(n1c1ccccc41)[C@@H]32`, the vessel count % control was 0% (inactive).

`OC[C@H]1O[C@@H](n2cnc3c(NC4CCCCC4)ncnc32)[C@H](O)[C@@H]1O`: the vessel count % control is 104% (inactive).

`CC(C)NCC(O)c1ccc(O)c(O)c1` (stereo not given): the vessel count % control is 97.1% (inactive).

Consider `S=C(Nc1ccccc1)Nc1nccs1`, for which the vessel count % control is 61.2% (inactive).

For `NCCc1c[nH]c2ccc(C(N)=O)cc12`, the vessel count % control was 112% (inactive).

`CN1CCCC1CCOC(C)(c1ccccc1)c1ccc(Cl)cc1` (stereo not given): the vessel count % control is 67.5% (inactive).

Consider `CCCN(CCC)[C@@H]1CCc2ccc(O)cc2C1`, for which the vessel count % control was 93.2% (inactive).

Consider `CN1C(C(=O)Nc2ccccn2)=C(O)c2ccccc2S1(=O)=O`, for which the vessel count % control is 110% (inactive).

Turning to `Oc1[nH]c2ccccc2c1C1=Nc2ccc(Br)cc2/C1=N\OCCN1CCNCC1`, the vessel count % control was 86.4% (inactive) and 40.6% (inactive).

As for `CNCCc1ccc(O)c(O)c1`, the vessel count % control is 96.5% (inactive).

Consider `O=C1C(SCCO)=C(SCCO)C(=O)c2ccccc21`, for which the vessel count % control was 0% (inactive).

As to `NCCCCCCNS(=O)(=O)c1cccc2c(Cl)cccc12`, the vessel count % control was 117% (inactive).

Take `NC(C(=O)N[C@@H]1C(=O)N2C(C(=O)O)=C(Cl)CS[C@H]12)c1ccccc1` (stereo not given in full): the vessel count % control is 108% (inactive).

In the case of `CC(=O)[C@@]1(O)CC[C@H]2[C@@H]3CCC4=CC(=O)CC[C@]4(C)[C@H]3CC[C@@]21C`, the vessel count % control was 98.7% (inactive).

Turning to `NCCCCNCCCN`, the vessel count % control is 122% (inactive).

For `O=S(=O)(NCCNC/C=C/c1ccc(Br)cc1)c1cccc2cnccc12`, the vessel count % control was 90.3% (inactive).

For the molecule `NC(N)=Nc1nc(CSCC/C(N)=N/S(N)(=O)=O)cs1`, the vessel count % control is 113% (inactive).

Take `Cc1cc(N)c2ccccc2[n+]1CCCCCCCCCCCCCC[n+]1c(C)cc(N)c2ccccc21`: the vessel count % control is 79.9% (inactive).

On to `O=C(O)CCCc1ccc(N(CCCl)CCCl)cc1`, for which the vessel count % control was 118% (inactive).

As for `C[C@@H]1C(=O)NC2=Nc3cccc(Cl)c3CN21`, the vessel count % control is 119% (inactive).

Consider `O=c1[nH]c(=O)n([C@H]2C[C@H](O)[C@@H](CO)O2)cc1/C=C/Br`, for which the vessel count % control was 93% (inactive).

In the case of `CC[N+](CC)(CC)CC(=O)Nc1c(C)cccc1C`, the vessel count % control is 85.1% (inactive).

As to `Clc1ccc(N2CCN(Cc3c[nH]c4ncccc34)CC2)cc1`, the vessel count % control was 83.7% (inactive).

Turning to `CNC(=O)[C@H]1O[C@@H](n2cnc3c(N)ncnc32)C(O)[C@H]1O` (stereo not given in full), the vessel count % control was 118% (inactive).

With `c1ccc2sc(C3(N4CCCCC4)CCCCC3)cc2c1`, the vessel count % control is 93.4% (inactive).

Turning to `CCO/C([O-])=N/c1c[n+](N2CCOCC2)no1`, the vessel count % control is 100% (inactive).

Take `CCCn1c(=O)c2[nH]c(-c3ccc(OCC(=O)Nc4ccc(C#N)cc4)cc3)nc2n(CCC)c1=O`: the vessel count % control was 84.9% (inactive).

Consider `COc1cc(CNC(=O)CCCCCCC(C)C)ccc1O`, for which the vessel count % control was 128% (inactive).

On to `O=C(O)c1cccnc1Nc1cccc(C(F)(F)F)c1`, for which the vessel count % control is 102% (inactive).

Turning to `CN=C(NC#N)NCCSCc1nc[nH]c1C`, the vessel count % control is 112% (inactive).

Turning to `O=C1C(c2c(O)[nH]c3c(Cl)cc(Cl)cc23)=Nc2ccccc21`, the vessel count % control was 60.2% (inactive).

Consider `[Li+]`, for which the vessel count % control was 0% (inactive).

In the case of `NO`, the vessel count % control is 93.7% (inactive).

For `C[N+](C)(C)CC=O`, the vessel count % control was 104% (inactive).

`CC1=C(C)C(=O)C(CCCCC#CCCCC#CCO)=C(C)C1=O`: the vessel count % control is 88.8% (inactive).

`COc1ccc(OC)c(C(O)C(C)N)c1` (stereo not given): the vessel count % control was 94.8% (inactive).

`CCCn1c(=O)c2[nH]c(-c3ccc(S(=O)(=O)O)cc3)nc2n(CCC)c1=O`: the vessel count % control was 70.2% (inactive).

In the case of `C[N+](C)(C)CC#CCN1CCCC1=O`, the vessel count % control was 99.6% (inactive).

For the molecule `C=CCN1CC[C@]23c4c5ccc(O)c4O[C@H]2/C(=N/NC(=O)c2ccccc2)CC[C@@]3(O)[C@H]1C5`, the vessel count % control was 120% (inactive).

Take `CN(C)C(=O)C(CCN1CCC(O)(c2ccc(Cl)cc2)CC1)(c1ccccc1)c1ccccc1`: the vessel count % control is 126% (inactive).

For the molecule `COC(=O)[C@@H](N)Cc1ccc(O)c(O)c1`, the vessel count % control was 99.1% (inactive).

With `NCC(O)(CS(=O)(=O)O)c1ccc(Cl)cc1` (stereo not given), the vessel count % control is 94.5% (inactive).

Consider `CC(N)[C@H](O)c1ccc(O)c(O)c1` (stereo not given in full), for which the vessel count % control is 106% (inactive).

Turning to `O=C(OC1CCN(CCCl)CC1)C(c1ccccc1)c1ccccc1`, the vessel count % control was 102% (inactive).

For `NCC(O)c1cc(O)c(O)cc1F` (stereo not given), the vessel count % control was 87.4% (inactive).

As to `CC(=O)N[C@H](C(=O)O)C(C)(C)SN=O`, the vessel count % control is 94.3% (inactive).

For `N[C@@H](COP(=O)(O)O)C(=O)O`, the vessel count % control was 105% (inactive).

`Ic1ccccc1CNC1C2CCN(CC2)C1C(c1ccccc1)c1ccccc1` (stereo not given): the vessel count % control is 103% (inactive).

For `CC(=O)[C@]1(O)Cc2c(O)c3c(c(O)c2[C@@H](O[C@H]2C[C@H](N)[C@H](O)[C@H](C)O2)C1)C(=O)c1ccccc1C3=O`, the vessel count % control was 0% (inactive).

Consider `N#CC(C#N)=Cc1cc(O)c(O)c(O)c1`, for which the vessel count % control was 107% (inactive).

As for `COc1ccc2c(c1)c(CC(=O)N1CCOCC1)c(C)n2C(=O)c1ccc(Cl)cc1`, the vessel count % control is 55% (inactive).

As for `CCC(NC(C)C)C(O)c1ccc(O)c(O)c1` (stereo not given), the vessel count % control was 85.9% (inactive).

With `Cc1sc2ccccc2c1CC1=NCCN1`, the vessel count % control was 92.5% (inactive).

As for `NCC(CP(=O)(O)O)c1ccc(Cl)cc1` (stereo not given), the vessel count % control is 116% (inactive).

For the molecule `NCCCC(=O)O`, the vessel count % control is 109% (inactive).

On to `NCC(O)C1CCCCCCC1` (stereo not given), for which the vessel count % control was 95.9% (inactive).

`CN(C)C(=O)/N=N/C(=O)N(C)C`: the vessel count % control is 110% (inactive).

For the molecule `CN1CCN(C2Cc3ccccc3Sc3ccc(Cl)cc32)CC1` (stereo not given), the vessel count % control is 120% (inactive).

For `N#C/C(=C\c1ccc(O)c(O)c1)C(=O)NCCCc1ccccc1`, the vessel count % control was 137% (inactive).

As to `Oc1cc2c(cc1O)[C@H]1c3ccccc3CN[C@@H]1CC2`, the vessel count % control is 83.3% (inactive).

As to `CCN(CC)CC#CCOC(=O)C(O)(c1ccccc1)C1CCCCC1` (stereo not given), the vessel count % control was 125% (inactive).

For `CCc1cccc2c3c([nH]c12)C(CC)(CC(=O)O)OCC3` (stereo not given), the vessel count % control is 83.6% (inactive).

Regarding `Oc1ccc(-c2nc(-c3ccc(F)cc3)c(-c3ccncc3)[nH]2)cc1`, the vessel count % control is 97.9% (inactive).

In the case of `CC1COc2c(N3CCN(C)CC3)c(F)cc3c(=O)c(C(=O)O)cn1c23` (stereo not given), the vessel count % control is 74.9% (inactive).

On to `COc1cc([C@@H]2c3cc4c(cc3[C@H](O)C3COC(=O)[C@@H]32)OCO4)cc(OC)c1OC` (stereo not given in full), for which the vessel count % control was 88.6% (inactive).

Take `O=C1C(c2c(O)[nH]c3ccc(S(=O)(=O)O)cc23)=Nc2ccccc21`: the vessel count % control was 101% (inactive).

Consider `CN1C(=O)CC[C@H]1c1cccnc1`, for which the vessel count % control is 110% (inactive).

Turning to `O=C(O)CN(CCN(CC(=O)O)CC(=O)O)CCN(CC(=O)O)CC(=O)O`, the vessel count % control is 0% (inactive).
